Experimental data as given in patent publication US20120136033A1, “Small Molecule Antagonists of Phosphatidylinositol-3,4,5-Triphosphate (PIP3) and Uses Thereof” (President and Fellows of Harvard College, priority 2009, published 2012).

Experiments:
PLC-δ PH domain = molecular target: T1, PLC-δ PH domain (Homo sapiens, UniProt P51178); test: FP assay, PIP2 binding to PLC-δ PH domain; conditions: 15 nM TMR-PIP2, 100 nM PLC-δ PH domain, 0-200 μM
T1 construct: 100 nM PLC-δ PH domain
T1 sequence (P51178 21-130 limits assumed): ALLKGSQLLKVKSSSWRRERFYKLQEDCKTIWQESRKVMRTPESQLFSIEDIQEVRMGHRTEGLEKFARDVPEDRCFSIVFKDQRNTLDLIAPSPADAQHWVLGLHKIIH
Protocol: FIG. 5 is a graph depicting specificity and concentration-dependent competitive inhibition of PIP3-PH domain interaction by PIT-1 and PIT-2. 15 nM TMR-conjugated PIP2 were incubated with 100 nM PLC-δ PH domain in the presence or absence of the indicated concentrations of PITs (0-200 μM) for 30 min, followed by FP measurement.
In order to identify compounds that disrupt the interaction between PIP3 and PH domains, a high-throughput fluorescence polarization (FP)-binding assay was developed using recombinant 1-123 amino acid N-terminal fragment of human Akt1 (also referred to herein simply as Akt), encompassing the PH domain (PH123 protein), and fluorescent NBD-labeled PIP3 molecule. The amino acid sequence of human Akt1 is publicly available as, for example, GenBank Accession No. NP_001014432.1 (SEQ ID NO:1), and the corresponding DNA sequence is publicly available as, for example, GenBank Accession No. NM_001014432. Briefly, 5 μM recombinant GST fusion proteins containing 1-123 a.a. N-terminal fragment of human Akt1 (PH 123) or 100 nM 441-551 a.a. region of human PDK1 were incubated with 15 nM TMR-labeled PIP3, PIP2, or PIP5 in buffer containing 50 mM Tris-HCl (pH 7.5), 150 mM NaCl, and 5 mM b-ME for 15 min at room temperature in the dark. FP values were determined using Wallac Victor 3 plate reader. […]

VAV2 = molecular target: T2, VAV2 (Homo sapiens, UniProt P52735); test: plasma membrane translocation assay, VAV2-GFP; format: cell-based; conditions: PDGF stimulation
T2 construct: expressed in transfected cells; host or cells: SUM159
T2 sequence (P52735 whole entry, species assumed): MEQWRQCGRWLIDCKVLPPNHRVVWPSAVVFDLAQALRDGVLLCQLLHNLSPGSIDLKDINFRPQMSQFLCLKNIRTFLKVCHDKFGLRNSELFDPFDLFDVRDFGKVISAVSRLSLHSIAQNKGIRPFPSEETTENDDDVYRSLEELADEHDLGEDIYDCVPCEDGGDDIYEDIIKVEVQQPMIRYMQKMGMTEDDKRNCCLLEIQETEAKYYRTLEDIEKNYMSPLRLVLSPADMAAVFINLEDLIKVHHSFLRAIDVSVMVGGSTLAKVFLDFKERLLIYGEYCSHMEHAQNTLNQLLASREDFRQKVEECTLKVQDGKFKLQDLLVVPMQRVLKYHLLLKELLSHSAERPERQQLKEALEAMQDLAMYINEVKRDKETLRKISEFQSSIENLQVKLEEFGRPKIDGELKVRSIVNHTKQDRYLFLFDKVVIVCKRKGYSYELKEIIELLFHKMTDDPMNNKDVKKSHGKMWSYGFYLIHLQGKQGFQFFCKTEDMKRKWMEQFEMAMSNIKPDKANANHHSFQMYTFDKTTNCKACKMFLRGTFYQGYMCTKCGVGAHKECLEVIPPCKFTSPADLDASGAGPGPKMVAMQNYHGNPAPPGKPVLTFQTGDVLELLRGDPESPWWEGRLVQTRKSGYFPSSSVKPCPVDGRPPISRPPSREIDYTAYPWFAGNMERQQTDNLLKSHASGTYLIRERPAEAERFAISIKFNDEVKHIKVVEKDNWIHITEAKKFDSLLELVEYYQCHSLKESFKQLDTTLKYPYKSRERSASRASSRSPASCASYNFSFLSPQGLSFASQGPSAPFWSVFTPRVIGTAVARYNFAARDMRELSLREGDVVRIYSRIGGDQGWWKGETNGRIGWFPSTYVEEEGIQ
Protocol: To begin characterizing cellular activity of PITs, a PH domain translocation assay was performed, measuring PIP3-induced association of GFP-fused PH domains with the plasma membrane. This method provides useful means for monitoring status of the PH domain/PIP3 binding in the intact cells. Varnai P et al. (1999) J Biol Chem 274:10983-9. Several PH-domain-containing proteins, which are known to bind PIP3 specifically and efficiently, were examined. […] Oikawa T et al. (2004) Nat Cell Biol 6:420-6.

[1] = tested on: Bax/Bak double knockout mouse embryonic fibroblasts; test: cell killing in Bax/Bak double knockout vs wild-type cells; format: cell-based
Protocol: Bax/Bak double knockout mouse embryonic fibroblasts (Wei M C et al. (2001) Science 292:727-30) and matched wild-type cells were a generous gift of Dr. Stanley Korsmeyer (Dana-Farber Cancer Center). B16-F10, U87MG, 4T1, A549, MDA-MB-231 and fibroblast cells were cultured in DMEM medium with 10% fetal bovine serum (FBS). SUM159 was maintained in Ham's F-12 medium with 5% FBS, 5 μg/ml insulin, and 1 μg/ml hydrocortisone. HUVEC cells were cultured in M199 medium with 20% FBS, 20 μg/ml ECGS, and 50 μg/ml heparin. All media were supplemented with 100 units/ml penicillin, 100 μg/ml streptomycin, and 2 mM glutamine. All cells were cultured in a humidified atmosphere of 95% air and 5% CO2 at 37° C.

[2] = tested on: SUM159 cells transfected with VAV2 or WAVE2; test: wound healing migration of VAV- or WAVE-overexpressing SUM159 cells; format: cell-based, human; conditions: 100 μM, PDGF, 8 hr
Protocol: SUM159 cells were transfected with VAV2 or WAVE2. Scratch wound was generated in cell monolayer, followed by treatment with PIT-1 (100 μM) in the presence of PDGF (100 ng/ml) stimulation for 8 hr. The inhibitory effect of PITs on VAV- or WAVE-induced cell migration was calculated according to the width of wound. The width of wounded cell monolayers was measured in five random fields.

Rac1 = Rac1 activation pull-down (GST-Pak1-PBD) in SUM159 cells; format: cell-based, human; conditions: 2 hr, PDGF 100 ng/ml
Protocol: Rho/Rac family, especially Rac1, plays a critical role in actin polymerization, membrane ruffling/lamellipodia formation, and cell motility (Ridley A J et al. (1992) Cell 70:401-410) downstream of the GEFs, e.g., VAV family, and upstream of the WAVE family. The effect of PITs on Rac1 activation was therefore analyzed. SUM159 cells were seeded on 10 cm^2 plates and serum starved overnight, treated with different PIT compounds at a variety of concentrations for 2 hr, and then stimulated with 100 ng/ml PDGF for […]. Next, cells were rinsed once with PBS, and 1 ml lysis buffer (25 mM Tris-HCl, pH 7.5, 150 mM NaCl, 5 mM MgCl2, 1% NP-40, 1 mM DTT, 5% glycerol, 1 μg/ml aprotinin, 1 μg/ml leupeptin and 1 mM PMSF) was added per plate. The cells were scraped and transferred to a microcentrifuge tube, vortexed briefly, and incubated on ice for 5 min, followed by a centrifugation at 16,000×g at 4° C. for 15 min. The supernatant was collected. A sample of the lysate was used to ensure equal protein concentration in the samples. Next, 700 μl lysate, 20 μl glutathione-sepharose beads, and 20 μg GST-human Pak1-PBD were mixed together, and the reaction mixture was incubated at 4° C. for 1 hr with gentle rocking. The beads were then washed three times with lysis buffer, and proteins were eluted by boiling beads in 50 μl of the 2×SDS sample buffer at 95-100° C. for 5 min. […]

SMILES	inhibition of interaction between PIP2 and PH domain of PLC-δ (PLC-δ PH domain)	inhibition of translocation of VAV2 to the plasma membrane (VAV2)	killing of Bax/Bak double knockout cells compared with wild-type cells [1]	inhibition of cell migration in VAV- and WAVE-overexpressing cells compared to control cells [2]	activation of Rac1 caused by growth factor stimulation (Rac1)
O=C(NC(=S)Nc1cc([N+](=O)[O-])cc(Cl)c1O)c1ccccc1 [PIT-1]	failed to inhibit	significantly inhibited	reduced in Bax/Bak double knockout cells	larger degree of inhibition	efficiently suppressed
O=C1NC(=S)S/C1=C\c1cc(O)c([N+](=O)[O-])cc1Cc1ccccc1 [PIT-2]	failed to inhibit	significantly inhibited	reduced in Bax/Bak double knockout cells	larger degree of inhibition	efficiently suppressed
